The values below come from publication PMC7151704, “4-Amino-1,2,4-triazole-3-thione as a Promising Scaffold for the Inhibition of Serine and Metallo-β-Lactamases” (Pharmaceuticals, 2020).

Common to all, as to assay: nitrocefin hydrolysis, spectrophotometric; Ki from IC50 by Cheng-Prusoff
Format in all cases: biochemical

One assay addresses T1, KPC-2 (Klebsiella pneumoniae, UniProt Q9F663).
T1 construct: recombinant, 'full-length KPC-2 enzyme'
An excerpt:
nitrocefin hydrolysis, spectrophotometric; Ki from IC50 by Cheng-Prusoff on KPC-2

In the next assay the target is T2, VIM-1 (Pseudomonas aeruginosa, UniProt Q9XAY4).
T2 construct: gene blaVIM; recombinant untagged, pET-24a(+) blaVIM-1 (pBPAQND2009), E. coli BL21(DE3); High Q and Superdex 75; zinc-supplemented buffers

The target of another assay is T3, IMP-1 (Pseudomonas aeruginosa, UniProt Q79MP6).
T3 construct: gene blaIMP-1; codon-optimised wild type gene, pETite N-His SUMO Kan, E. coli Lemo21(DE3); His-SUMO cleaved by SUMO protease; IMAC and Superose 12

Molecules are shown by their SMILES.

T1 sequence (Q9F663 25-293 limits assumed): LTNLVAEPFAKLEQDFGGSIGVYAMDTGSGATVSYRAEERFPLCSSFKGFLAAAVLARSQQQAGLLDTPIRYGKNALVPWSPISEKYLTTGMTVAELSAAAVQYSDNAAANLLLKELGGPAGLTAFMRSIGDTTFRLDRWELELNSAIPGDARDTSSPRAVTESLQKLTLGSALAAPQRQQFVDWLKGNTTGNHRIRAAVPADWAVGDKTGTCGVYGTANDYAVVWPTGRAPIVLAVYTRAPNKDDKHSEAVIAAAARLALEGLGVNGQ
T3 sequence (Q79MP6 19-246 limits assumed): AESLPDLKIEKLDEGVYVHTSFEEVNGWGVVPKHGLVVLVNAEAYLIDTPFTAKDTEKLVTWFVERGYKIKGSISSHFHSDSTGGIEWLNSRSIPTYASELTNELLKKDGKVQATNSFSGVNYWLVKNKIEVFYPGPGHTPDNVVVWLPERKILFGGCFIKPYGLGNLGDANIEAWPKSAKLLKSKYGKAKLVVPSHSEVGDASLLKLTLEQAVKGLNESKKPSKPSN

In the case of `S=c1[nH]ncn1/N=C/c1c[nH]c2ccccc12` [2g, 4-(((1H-indol-3-yl)methylene)amino)-2,4-dihydro-3H-1,2,4-triazole-3-thione], the inhibition constant (Ki) on KPC-2 amounted to 139 ± 4 µM; on VIM-1, 95 ± 3 µM; at IMP-1, 104 ± 4 µM.
Consider `S=c1[nH]ncn1NCc1ccc2c(c1)OCO2` [1f, 4-((benzo[d][1,3]dioxol-5-ylmethyl)amino)-2,4-dihydro-3H-1,2,4-triazole-3-thione], for which the inhibitory constant (Ki) at KPC-2 amounted to 138 ± 3 µM; on VIM-1 it was 120 ± 4 µM; at IMP-1 it was 125 ± 5 µM.
The matching figures for `Sc1nncn1/N=C/c1ccc(Br)cc1` [2b, 4-((4-bromobenzylidene)amino)-2,4-dihydro-3H-1,2,4-triazole-3-thione]: 158 ± 7 µM, 58 ± 2 µM and 285 ± 13 µM.
For the compound `CCN(CC)c1ccc(CNn2cn[nH]c2=S)cc1` [1d, 4-((4-(diethylamino)benzyl)amino)-2,4-dihydro-3H-1,2,4-triazole-3-thione], the values for the Ki on KPC-2, on VIM-1 and on IMP-1 were 263 ± 13 µM, 224 ± 11 µM and 173 ± 6 µM, respectively.
